Assay results from PubChem BioAssay (NCI).
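Growth conditions: 96-well plates. Treatment: test compound, 48 hours, 5 concentrations. Analysis: linear interpolation between bracketing concentrations; unreached endpoints set to highest concentration. The concentration for 50% growth inhibition is given as GI50. At the TGI there is no net growth.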

Legend:
Test in all cases: NCI-60 cell line screen, 48 h
[1] = system: EKVX NSCLC
[2] = system: SK-MEL-28 melanoma
[3] = system: A498 renal
[4] = system: RPMI-8226 leukemia
[5] = system: MCF7 breast
[6] = system: HCT-116 colon
[7] = system: NCI-H522 lung
[8] = system: SF-539 CNS
[9] = system: HT29 colon
[10] = system: COLO 205 colon
[11] = system: HOP-62 NSCLC
[12] = system: 786-0 renal
[13] = system: SK-OV-3 ovarian
[14] = system: UO-31 renal
[15] = system: SR leukemia
[16] = system: HS 578T breast
[17] = system: BT-549 breast
[18] = system: OVCAR-5 ovarian
[19] = system: A549 NSCLC
[20] = system: SF-295 CNS
[21] = system: DU-145 prostate
[22] = system: SW-620 colon
[23] = system: LOX IMVI melanoma
[24] = system: PC-3 prostate
[25] = system: NCI-H460 lung
[26] = system: SK-MEL-5 melanoma
[27] = system: T-47D breast
[28] = system: ACHN renal
[29] = system: SK-MEL-2 melanoma
[30] = system: CCRF-CEM leukemia
[31] = system: MALME-3M melanoma
[32] = system: MDA-MB-435
[33] = system: UACC-62 melanoma
[34] = system: OVCAR-4 ovarian
[35] = system: NCI-H226 lung
[36] = system: SN12C renal
[37] = system: CAKI-1 renal
[38] = system: IGROV1 ovarian
[39] = system: K-562 leukemia
[40] = system: NCI-H23 lung
[41] = system: NCI/ADR-RES ovarian
[42] = system: RXF 393 renal
[43] = system: SNB-19 CNS
[44] = system: M14 melanoma
[45] = system: HL-60(TB) leukemia
[46] = system: HCT-15 colon
[47] = system: HOP-92 NSCLC
[48] = system: SF-268 CNS
[49] = system: UACC-257 melanoma
[50] = system: OVCAR-3 ovarian
[51] = system: SNB-75 CNS
[52] = system: TK-10 renal
[53] = system: KM12 colon
[54] = system: MOLT-4 leukemia
[55] = system: HCC-2998 colon
[56] = system: MDA-MB-231 breast
[57] = system: U251 CNS
[58] = system: OVCAR-8 ovarian

**Q.** Which results are given for COc1ccc2c(c1)c1nc3cc(C)c(C)cc3nc1n2CCN(C)C?
**A.** GI50 [1]: 1160 nM; TGI [1]: 2850 nM; GI50 [2]: 1650 nM; TGI [2]: 3290 nM; GI50 [3]: 1250 nM; TGI [3]: 2580 nM; GI50 [4]: 453 nM; TGI [4]: 2350 nM; GI50 [5]: 333 nM; TGI [5]: 1420 nM; GI50 [6]: 354 nM; TGI [6]: 1640 nM; GI50 [7]: 582 nM; TGI [7]: 2800 nM; GI50 [8]: 907 nM; TGI [8]: 2350 nM; GI50 [9]: 529 nM; TGI [9]: 1940 nM; GI50 [10]: 420 nM; TGI [10]: 1880 nM; GI50 [11]: 899 nM; TGI [11]: 3370 nM; GI50 [12]: 1020 nM; TGI [12]: 2730 nM; GI50 [13]: 1500 nM; TGI [13]: 3480 nM; GI50 [14]: 541 nM; TGI [14]: 2100 nM; GI50 [15]: 428 nM; TGI [15]: 4810 nM; GI50 [16]: 1770 nM; TGI [16]: 6230 nM; GI50 [17]: 1700 nM; TGI [17]: 3490 nM; GI50 [18]: 953 nM; TGI [18]: 2300 nM; GI50 [19]: 495 nM; TGI [19]: 2190 nM; GI50 [20]: 677 nM; TGI [20]: 1950 nM; GI50 [21]: 1060 nM; TGI [21]: 2370 nM; GI50 [22]: 405 nM; TGI [22]: 1730 nM; GI50 [23]: 375 nM; TGI [23]: 1600 nM; GI50 [24]: 1040 nM; TGI [24]: 2480 nM; GI50 [25]: 369 nM; TGI [25]: 1390 nM; GI50 [26]: 1620 nM; TGI [26]: 3010 nM; GI50 [27]: 1200 nM; TGI [27]: 4250 nM; GI50 [28]: 375 nM; TGI [28]: 1480 nM; GI50 [29]: 1460 nM; TGI [29]: 3290 nM; GI50 [30]: 797 nM; TGI [30]: 3670 nM; GI50 [31]: 1110 nM; TGI [31]: 2530 nM; GI50 [32]: 1090 nM; TGI [32]: 2510 nM; GI50 [33]: 884 nM; TGI [33]: 2480 nM; GI50 [34]: 1030 nM; TGI [34]: 2430 nM; GI50 [35]: 1010 nM; TGI [35]: 2970 nM; GI50 [36]: 534 nM; TGI [36]: 1990 nM; GI50 [37]: 632 nM; TGI [37]: 2100 nM; GI50 [38]: 464 nM; TGI [38]: 1970 nM; GI50 [39]: 431 nM; TGI [39]: 2430 nM; GI50 [40]: 1020 nM; TGI [40]: 2880 nM; GI50 [41]: 599 nM; TGI [41]: 2460 nM; GI50 [42]: 1220 nM; TGI [42]: 2880 nM; GI50 [43]: 678 nM; TGI [43]: 2320 nM; GI50 [44]: 1100 nM; TGI [44]: 2570 nM; GI50 [45]: 992 nM; TGI [45]: 3360 nM; GI50 [46]: 417 nM; TGI [46]: 1770 nM; GI50 [47]: 308 nM; TGI [47]: 2120 nM; GI50 [48]: 1420 nM; TGI [48]: 3570 nM; GI50 [49]: 1260 nM; TGI [49]: 3170 nM; GI50 [50]: 1130 nM; TGI [50]: 2550 nM; GI50 [51]: 1290 nM; TGI [51]: 4140 nM; GI50 [52]: 1840 nM; TGI [52]: 3580 nM; GI50 [53]: 827 nM; TGI [53]: 2370 nM; GI50 [54]: 420 nM; TGI [54]: 4940 nM; GI50 [55]: 1070 nM; TGI [55]: 2580 nM; GI50 [56]: 1170 nM; TGI [56]: 2760 nM; GI50 [57]: 570 nM; TGI [57]: 2190 nM

**Q.** What does the source list for Cc1cccc(Cl)c1NC(=O)c1cnc(Nc2cc(N3CCOCC3)cc(N3CCOCC3)c2)s1?
**A.** GI50 [1]: 213 nM; TGI [1]: > 10000 nM; GI50 [2]: > 5320 nM; TGI [2]: > 10000 nM; GI50 [3]: 24.8 nM; TGI [3]: 473 nM; GI50 [4]: > 6240 nM; TGI [4]: > 10000 nM; GI50 [5]: > 4470 nM; TGI [5]: > 10000 nM; GI50 [6]: 32.8 nM; TGI [6]: > 10000 nM; GI50 [7]: 30.7 nM; TGI [7]: > 5790 nM; GI50 [8]: 36.6 nM; TGI [8]: > 6800 nM; GI50 [9]: 18.1 nM; TGI [9]: 190 nM; GI50 [10]: 122 nM; TGI [10]: > 8090 nM; GI50 [11]: 22 nM; TGI [11]: > 10000 nM; GI50 [58]: 84.2 nM; TGI [58]: > 10000 nM; GI50 [12]: 18.3 nM; GI50 [13]: 17.8 nM; TGI [13]: 1600 nM; GI50 [14]: 6.7 nM; TGI [14]: 789 nM; TGI [15]: > 10000 nM; GI50 [16]: 15.1 nM; TGI [16]: 157 nM; GI50 [17]: > 4460 nM; TGI [17]: > 10000 nM; GI50 [18]: 27.5 nM; TGI [18]: > 10000 nM; GI50 [19]: 158 nM; TGI [19]: > 10000 nM; GI50 [20]: 154 nM; TGI [20]: > 10000 nM; GI50 [21]: 163 nM; TGI [21]: > 3600 nM; GI50 [22]: > 6790 nM; TGI [22]: > 10000 nM; GI50 [23]: 12 nM; TGI [23]: 83 nM; GI50 [24]: 152 nM; TGI [24]: > 10000 nM; GI50 [25]: > 5160 nM; TGI [25]: > 10000 nM; GI50 [26]: > 8960 nM; TGI [26]: > 10000 nM; GI50 [27]: 36.8 nM; TGI [27]: > 10000 nM; GI50 [28]: 8.87 nM; TGI [28]: 171 nM; GI50 [29]: > 5250 nM; TGI [29]: > 10000 nM; GI50 [30]: > 6270 nM; TGI [30]: > 10000 nM; GI50 [31]: > 4820 nM; TGI [31]: > 10000 nM; GI50 [32]: 4080 nM; TGI [32]: > 10000 nM; GI50 [33]: 1700 nM; TGI [33]: > 10000 nM; GI50 [34]: > 4050 nM; TGI [34]: > 10000 nM; GI50 [35]: 601 nM; TGI [35]: > 10000 nM; GI50 [36]: 53.5 nM; TGI [36]: > 10000 nM; GI50 [37]: 4.67 nM; TGI [37]: 24.6 nM; GI50 [38]: 3.55 nM; TGI [38]: 62.1 nM; GI50 [39]: 1.47 nM; TGI [39]: > 10000 nM; GI50 [40]: > 9240 nM; TGI [40]: > 10000 nM; GI50 [41]: 1050 nM; TGI [41]: > 10000 nM; GI50 [42]: 12.3 nM; TGI [42]: 153 nM; GI50 [43]: > 3360 nM; TGI [43]: > 10000 nM; GI50 [44]: 4180 nM; TGI [44]: > 10000 nM; GI50 [45]: 9980 nM; TGI [45]: > 10000 nM; GI50 [46]: 390 nM; TGI [46]: > 10000 nM; GI50 [47]: 2.55 nM; TGI [47]: 31 nM; GI50 [48]: 62.6 nM; TGI [48]: > 10000 nM; GI50 [49]: > 7930 nM; TGI [49]: > 10000 nM; GI50 [50]: 64.4 nM; TGI [50]: > 10000 nM; GI50 [51]: 1.47 nM; TGI [51]: 17.6 nM; GI50 [52]: 6.22 nM; TGI [52]: 72.9 nM; GI50 [53]: > 6220 nM; TGI [53]: > 10000 nM; GI50 [54]: > 4960 nM; TGI [54]: > 10000 nM; GI50 [55]: > 4210 nM; TGI [55]: > 10000 nM; GI50 [56]: 18.9 nM; TGI [56]: > 4590 nM; GI50 [57]: > 3850 nM; TGI [57]: > 10000 nM
